ChEMBL document CHEMBL1201861, “Genomics of Drug Sensitity in Cancer screening data, Wellcome Trust Sanger Institute”

Tests used:
Assay in all cases: cells
[1] = test system: COLO-824; type: functional, cell-based, Homo sapiens; conditions: Homo sapiens, COLO-824
Description: SANGER: Inhibition of human COLO-824 cell growth in a cell viability assay.

[2] = test system: D283 Med; type: functional, cell-based, Homo sapiens; conditions: Homo sapiens, D283 Med
Description: SANGER: Inhibition of human D-283MED cell growth in a cell viability assay.

[3] = test system: DU-4475; type: functional, cell-based, Homo sapiens; conditions: Homo sapiens, DU-4475
Description: SANGER: Inhibition of human DU-4475 cell growth in a cell viability assay.

[4] = test system: ES1; type: functional, cell-based, Homo sapiens; conditions: Homo sapiens, ES1;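 further: growth inhibition of ES1 cells, read out with a cell viability assay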
Description: SANGER: Inhibition of human ES1 cell growth in a cell viability assay.

[5] = test system: ES8; type: functional, cell-based, Homo sapiens; conditions: Homo sapiens, ES8;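 further: growth inhibition of human ES8 cells, read out with a cell viability assay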
Description: SANGER: Inhibition of human ES8 cell growth in a cell viability assay.

[6] = test system: ETK-1; type: functional, cell-based, Homo sapiens; conditions: Homo sapiens, ETK-1;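 further: growth inhibition of human ETK-1 cells, read out with a cell viability assay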
Description: SANGER: Inhibition of human ETK-1 cell growth in a cell viability assay.

[7] = test system: EW-13; type: functional, cell-based, Homo sapiens; conditions: Homo sapiens, EW-13; read-out: IC50;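 further: growth inhibition of EW-13 cells, read out with a cell viability assay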
Description: SANGER: Inhibition of human EW-13 cell growth in a cell viability assay.

[8] = test system: EW-3; type: functional, cell-based, Homo sapiens; conditions: Homo sapiens, EW-3;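 further: cell viability assay read-out, IC50 reflects inhibition of growth of the EW-3 cells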
Description: SANGER: Inhibition of human EW-3 cell growth in a cell viability assay.

[9] = test system: EOL1; type: functional, cell-based, Homo sapiens; conditions: Homo sapiens, EOL1;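 further: growth inhibition of EoL-1 cells, read out by a cell viability assay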
Description: SANGER: Inhibition of human EoL-1-cell cell growth in a cell viability assay.

[10] = test system: GB-1; type: functional, cell-based, Homo sapiens; conditions: Homo sapiens, GB-1;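 further: growth of GB-1 cells judged by a viability assay, IC50 marks the concentration inhibiting growth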
Description: SANGER: Inhibition of human GB-1 cell growth in a cell viability assay.

[11] = test system: HCE-T; type: functional, cell-based, Homo sapiens; conditions: Homo sapiens, HCE-T;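 further: cell viability assay read-out, reporting inhibition of HCE-T cell growth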
Description: SANGER: Inhibition of human HCE-T cell growth in a cell viability assay.

[12] = test system: HDLM-2; type: functional, cell-based, Homo sapiens; conditions: Homo sapiens, HDLM-2;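 further: cell viability assay measuring suppression of HDLM-2 proliferation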
Description: SANGER: Inhibition of human HDLM-2 cell growth in a cell viability assay.

[13] = test system: HT; type: functional, cell-based, Homo sapiens; conditions: Homo sapiens, HT
Description: SANGER: Inhibition of human HT cell growth in a cell viability assay.

[14] = test system: JVM-3; type: functional, cell-based, Homo sapiens; conditions: Homo sapiens, JVM-3;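 further: growth inhibition of human JVM-3 cells, read out with a cell viability assay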
Description: SANGER: Inhibition of human JVM-3 cell growth in a cell viability assay.

[15] = test system: KALS-1; type: functional, cell-based, Homo sapiens; conditions: Homo sapiens, KALS-1; read-out: IC50;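 further: growth inhibition of KALS-1 cells, determined with a cell viability assay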
Description: SANGER: Inhibition of human KALS-1 cell growth in a cell viability assay.

[16] = test system: KU812 cell line; type: functional, cell-based, Homo sapiens; conditions: Homo sapiens, KU812;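 further: growth inhibition of KU812 cells, read out with a cell viability assay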
Description: SANGER: Inhibition of human KU812 cell growth in a cell viability assay.

[17] = test system: LS-123; type: functional, cell-based, Homo sapiens; conditions: Homo sapiens, LS-123
Description: SANGER: Inhibition of human LS-123 cell growth in a cell viability assay.

[18] = test system: LS-513; type: functional, cell-based, Homo sapiens; conditions: Homo sapiens, LS-513
Description: SANGER: Inhibition of human LS-513 cell growth in a cell viability assay.

[19] = test system: MC116; type: functional, cell-based, Homo sapiens; conditions: Homo sapiens, MC116;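 further: growth inhibition of MC116 cells, read out with a cell viability assay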
Description: SANGER: Inhibition of human MC116 cell growth in a cell viability assay.

[20] = test system: ML-2; type: functional, cell-based, Homo sapiens; conditions: Homo sapiens, ML-2;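 further: growth inhibition of ML-2 cells, measured with a cell viability readout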
Description: SANGER: Inhibition of human ML-2 cell growth in a cell viability assay.

[21] = test system: MMAC-SF; type: functional, cell-based; conditions: Homo sapiens;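 further: growth inhibition of human MMAC-SF cells, read out with a cell viability assay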
Description: SANGER: Inhibition of human MMAC-SF cell growth in a cell viability assay.

[22] = test system: MZ1-PC; type: functional, cell-based, Homo sapiens; conditions: Homo sapiens, MZ1-PC;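 further: cell viability assay measuring growth inhibition of human MZ1-PC cells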
Description: SANGER: Inhibition of human MZ1-PC cell growth in a cell viability assay.

[23] = test system: NCI-H1155; type: functional, cell-based, Homo sapiens; conditions: Homo sapiens, NCI-H1155;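 further: cell growth inhibition measured by a viability assay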
Description: SANGER: Inhibition of human NCI-H1155 cell growth in a cell viability assay.

[24] = test system: NCI-H1395; type: functional, cell-based, Homo sapiens; conditions: Homo sapiens, NCI-H1395;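 further: cell viability assay read-out quantifying reduced proliferation of human NCI-H1395 cells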
Description: SANGER: Inhibition of human NCI-H1395 cell growth in a cell viability assay.

[25] = test system: NCI-H1648; type: functional, cell-based, Homo sapiens; conditions: Homo sapiens, NCI-H1648;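 further: cell viability assay measuring inhibition of NCI-H1648 cell growth, from the Sanger screening data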
Description: SANGER: Inhibition of human NCI-H1648 cell growth in a cell viability assay.

[26] = test system: NCI-H82; type: functional, cell-based, Homo sapiens; conditions: Homo sapiens, NCI-H82;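 further: growth inhibition of NCI-H82 cells, measured with a cell viability readout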
Description: SANGER: Inhibition of human NCI-H82 cell growth in a cell viability assay.

[27] = test system: RKO; type: functional, cell-based, Homo sapiens; conditions: Homo sapiens, RKO;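 further: growth inhibition of human RKO cells, read out with a cell viability assay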
Description: SANGER: Inhibition of human RKO cell growth in a cell viability assay.

[28] = test system: Ramos-2G6-4C10; type: functional, cell-based, Homo sapiens; conditions: Homo sapiens, Ramos-2G6-4C10;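 further: growth inhibition of the cell line, measured by a cell viability read-out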
Description: SANGER: Inhibition of human Ramos-2G6-4C10 cell growth in a cell viability assay.

[29] = test system: SBC-1; type: functional, cell-based, Homo sapiens; conditions: Homo sapiens, SBC-1;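 further: cell viability assay measuring growth inhibition of the SBC-1 cell line, IC50 being the concentration that halves growth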
Description: SANGER: Inhibition of human SBC-1 cell growth in a cell viability assay.

[30] = test system: SF-126; type: functional, cell-based, Homo sapiens; conditions: Homo sapiens, SF-126;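 further: growth inhibition of human SF126 cells, read out with a cell viability assay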
Description: SANGER: Inhibition of human SF126 cell growth in a cell viability assay.

[31] = test system: SF-268; type: functional, cell-based, Homo sapiens; conditions: Homo sapiens, SF-268;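 further: growth inhibition of SF-268 cells determined with a cell viability assay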
Description: SANGER: Inhibition of human SF268 cell growth in a cell viability assay.

[32] = test system: SH-4; type: functional, cell-based; conditions: Homo sapiens;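 further: growth inhibition of SH-4 cells, read out with a cell viability assay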
Description: SANGER: Inhibition of human SH-4 cell growth in a cell viability assay.

[33] = test system: SK-MEL-1; type: functional, cell-based, Homo sapiens; conditions: Homo sapiens, SK-MEL-1;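 further: growth inhibition of human SK-MEL-1 cells, read out by a cell viability assay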
Description: SANGER: Inhibition of human SK-MEL-1 cell growth in a cell viability assay.

[34] = test system: SW684; type: functional, cell-based, Homo sapiens; conditions: Homo sapiens, SW684; read-out: IC50;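 further: growth inhibition of human SW684 cells, measured by a cell viability assay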
Description: SANGER: Inhibition of human SW684 cell growth in a cell viability assay.

[35] = test system: SW 954; type: functional, cell-based, Homo sapiens; conditions: Homo sapiens, SW 954;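 further: growth inhibition of SW954 human cancer cells, read out as cell viability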
Description: SANGER: Inhibition of human SW954 cell growth in a cell viability assay.

[36] = test system: A101D; type: functional, cell-based, Homo sapiens; conditions: Homo sapiens, A101D;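 further: growth inhibition of the cell line, measured with a viability assay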
Description: SANGER: Inhibition of human A101D cell growth in a cell viability assay.

[37] = test system: A388; type: functional, cell-based; conditions: Homo sapiens;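 further: growth inhibition of human A388 cells, read out with a cell viability assay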
Description: SANGER: Inhibition of human A388 cell growth in a cell viability assay.

[38] = test system: A498; type: functional, cell-based, Homo sapiens; conditions: Homo sapiens, A498;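 further: growth inhibition of human A498 cells, read out with a cell viability assay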
Description: SANGER: Inhibition of human A498 cell growth in a cell viability assay.

[39] = test system: A704; type: functional, cell-based; conditions: Homo sapiens;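 further: growth inhibition of human A704 cells, read out with a cell viability assay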
Description: SANGER: Inhibition of human A704 cell growth in a cell viability assay.

[40] = test system: ACN; type: functional, cell-based, Homo sapiens; conditions: Homo sapiens, ACN;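 further: growth inhibition of the human ACN cell line, read out via cell viability testing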
Description: SANGER: Inhibition of human ACN cell growth in a cell viability assay.

[41] = test system: ATN-1; type: functional, cell-based, Homo sapiens; conditions: Homo sapiens, ATN-1;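 further: growth inhibition of human ATN-1 cells, read out with a cell viability assay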
Description: SANGER: Inhibition of human ATN-1 cell growth in a cell viability assay.

[42] = test system: BB30-HNC; type: functional, cell-based, Homo sapiens; conditions: Homo sapiens, BB30-HNC;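 further: growth inhibition of the cultured cell line, read out by a cell viability assay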
Description: SANGER: Inhibition of human BB30-HNC cell growth in a cell viability assay.

[43] = test system: BE-13; type: functional, cell-based, Homo sapiens; conditions: Homo sapiens, BE-13;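 further: growth inhibition of human BE-13 cells, measured with a cell viability assay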
Description: SANGER: Inhibition of human BE-13 cell growth in a cell viability assay.

[44] = test system: Becker; type: functional, cell-based, Homo sapiens; conditions: Homo sapiens, Becker;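 further: growth inhibition of Becker cells, read out with a cell viability assay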
Description: SANGER: Inhibition of human Becker cell growth in a cell viability assay.

[45] = test system: C2BBe1; type: functional, cell-based, Homo sapiens; conditions: Homo sapiens, C2BBe1;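 further: growth inhibition of C2BBe1 cells, read out through a viability assay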
Description: SANGER: Inhibition of human C2BBe1 cell growth in a cell viability assay.

[46] = test system: TE-11; type: functional, cell-based; conditions: Homo sapiens;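 further: growth inhibition of human TE-11 cells, read out by a cell viability assay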
Description: SANGER: Inhibition of human TE-11 cell growth in a cell viability assay.

[47] = test system: TE-12; type: functional, cell-based, Homo sapiens; conditions: Homo sapiens, TE-12;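 further: growth inhibition of TE-12 cells, read out by a cell viability assay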
Description: SANGER: Inhibition of human TE-12 cell growth in a cell viability assay.

[48] = test system: TK-10; type: functional, cell-based, Homo sapiens; conditions: Homo sapiens, TK-10;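 further: growth inhibition of TK-10 cells, read out in a cell viability assay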
Description: SANGER: Inhibition of human TK10 cell growth in a cell viability assay.

[49] = test system: CAS-1; type: functional, cell-based, Homo sapiens; conditions: Homo sapiens, CAS-1;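 further: growth inhibition of CAS-1 cells, measured with a cell viability assay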
Description: SANGER: Inhibition of human CAS-1 cell growth in a cell viability assay.

[50] = test system: COLO-684; type: functional, cell-based, Homo sapiens; conditions: Homo sapiens, COLO-684
Description: SANGER: Inhibition of human COLO-684 cell growth in a cell viability assay.

O=S(=O)(O)c1ccc2cc(/N=N/c3cc(S(=O)(=O)O)c4cccnc4c3O)ccc2c1
IC50 [1]: > 16000 nM
IC50 [2]: > 16000 nM
IC50 [3]: > 16000 nM
IC50 [4]: > 16000 nM
IC50 [5]: > 16000 nM
IC50 [6]: > 16000 nM
IC50 [7]: 5170 nM
IC50 [8]: > 16000 nM
IC50 [9]: > 16000 nM
IC50 [10]: > 16000 nM
IC50 [11]: > 16000 nM
IC50 [12]: > 16000 nM
IC50 [13]: > 16000 nM
IC50 [14]: > 16000 nM
IC50 [15]: > 16000 nM
IC50 [16]: > 16000 nM
IC50 [17]: > 16000 nM
IC50 [18]: > 16000 nM
IC50 [19]: > 16000 nM
IC50 [20]: > 16000 nM
IC50 [21]: > 16000 nM
IC50 [22]: > 16000 nM
IC50 [23]: > 16000 nM
IC50 [24]: > 16000 nM
IC50 [25]: > 16000 nM
IC50 [26]: > 16000 nM
IC50 [27]: > 16000 nM
IC50 [28]: > 16000 nM
IC50 [29]: > 16000 nM
IC50 [30]: > 16000 nM
IC50 [31]: > 16000 nM
IC50 [32]: > 16000 nM
IC50 [33]: > 16000 nM
IC50 [34]: > 16000 nM
IC50 [35]: > 16000 nM
IC50 [36]: > 16000 nM
IC50 [37]: > 16000 nM
IC50 [38]: > 16000 nM
IC50 [39]: > 16000 nM
IC50 [40]: > 16000 nM
IC50 [41]: > 16000 nM
IC50 [42]: > 16000 nM
IC50 [43]: > 16000 nM
IC50 [44]: > 16000 nM
IC50 [45]: > 16000 nM
IC50 [46]: > 16000 nM
IC50 [47]: > 16000 nM
IC50 [48]: > 16000 nM
IC50 [49]: > 16000 nM
IC50 [50]: > 16000 nM

NC(=O)c1cccc(-c2cc(Nc3ccc(OC(F)(F)F)cc3)ncn2)c1
IC50 [1]: > 1280 nM
IC50 [2]: > 1280 nM
IC50 [3]: > 1280 nM
IC50 [4]: > 1280 nM
IC50 [5]: > 1280 nM
IC50 [6]: > 1280 nM
IC50 [7]: > 1280 nM
IC50 [8]: > 1280 nM
IC50 [9]: > 1280 nM
IC50 [10]: > 1280 nM
IC50 [11]: > 1280 nM
IC50 [12]: > 1280 nM
IC50 [13]: > 1280 nM
IC50 [14]: > 1280 nM
IC50 [15]: > 1280 nM
IC50 [16]: > 1280 nM
IC50 [17]: > 1280 nM
IC50 [18]: > 1280 nM
IC50 [19]: > 1280 nM
IC50 [20]: > 1280 nM
IC50 [21]: > 1280 nM
IC50 [22]: > 1280 nM
IC50 [23]: > 1280 nM
IC50 [24]: > 1280 nM
IC50 [25]: > 1280 nM
IC50 [26]: > 1280 nM
IC50 [27]: > 1280 nM
IC50 [28]: > 1280 nM
IC50 [29]: 1000 nM
IC50 [30]: > 1280 nM
IC50 [31]: > 1280 nM
IC50 [32]: > 1280 nM
IC50 [33]: > 1280 nM
IC50 [34]: > 1280 nM
IC50 [35]: > 1280 nM
IC50 [36]: > 1280 nM
IC50 [37]: > 1280 nM
IC50 [38]: > 1280 nM
IC50 [39]: > 1280 nM
IC50 [40]: > 1280 nM
IC50 [41]: > 1280 nM
IC50 [42]: > 1280 nM
IC50 [43]: > 1280 nM
IC50 [44]: > 1280 nM
IC50 [45]: > 1280 nM
IC50 [46]: > 1280 nM
IC50 [47]: > 1280 nM
IC50 [48]: > 1280 nM
IC50 [49]: > 1280 nM
IC50 [50]: > 1280 nM

COc1cc(N2CCC(N3CCN(C)CC3)CC2)ccc1Nc1ncc(Cl)c(Nc2ccccc2S(=O)(=O)C(C)C)n1 [TAE-684]
IC50 [1]: > 2000 nM
IC50 [2]: 1220 nM
IC50 [3]: 1460 nM
IC50 [4]: > 2000 nM
IC50 [5]: 750 nM
IC50 [6]: 1340 nM
IC50 [7]: > 2000 nM
IC50 [8]: > 2000 nM
IC50 [9]: > 2000 nM
IC50 [10]: 389 nM
IC50 [11]: 1090 nM
IC50 [12]: > 2000 nM
IC50 [13]: > 2000 nM
IC50 [14]: > 2000 nM
IC50 [15]: 1340 nM
IC50 [16]: > 2000 nM
IC50 [17]: 1520 nM
IC50 [18]: > 2000 nM
IC50 [19]: > 2000 nM
IC50 [20]: 490 nM
IC50 [21]: > 2000 nM
IC50 [22]: 178 nM
IC50 [23]: > 2000 nM
IC50 [24]: > 2000 nM
IC50 [25]: 279 nM
IC50 [26]: > 2000 nM
IC50 [27]: 1500 nM
IC50 [28]: > 2000 nM
IC50 [29]: > 2000 nM
IC50 [30]: 1120 nM
IC50 [31]: 840 nM
IC50 [32]: > 2000 nM
IC50 [33]: > 2000 nM
IC50 [34]: > 2000 nM
IC50 [35]: 1200 nM
IC50 [36]: 1570 nM
IC50 [37]: > 2000 nM
IC50 [38]: > 2000 nM
IC50 [39]: 1330 nM
IC50 [40]: > 2000 nM
IC50 [41]: 333 nM
IC50 [42]: 1130 nM
IC50 [43]: > 2000 nM
IC50 [44]: > 2000 nM
IC50 [45]: 1290 nM
IC50 [46]: 161 nM
IC50 [47]: 533 nM
IC50 [48]: 1050 nM
IC50 [49]: 1980 nM
IC50 [50]: > 2000 nM
